# Laboratory results taken from PubChem BioAssay AID1963836 (Molecular Pharmacology Branch, DTP, NCI, 2024).
# Values joined by “and” are separate entries in the source; they are usually repeats but may differ in a detail not shown here. Identical values can stand only once.
# Test system: 857933-349-R-J2-PDC complex spheroid viability
# Experiment: Anticancer human tumor 857933-349-R-J2-PDC patient-derived colon adenocarcinoma cell line growth inhibition [POLQ]
# Details: for viability, T/C: stronger effect = lower value
# Protocol: Multicellular complex tumor spheroid response to Polymerase (POL) inhibitors (novobiocin, ART-558, RP6685) in combination with a variety of drugs and investigational agents in selected tumor cell lines
# The POL inhibitors (novobiocin, ART-558, and RP6685) were evaluated both individually and in combination with standard of care and investigational anticancer small molecules within a complex spheroid model of solid tumors. . Complex spheroids include a stromal component modeled by human endothelial cells (HUVEC) and fibroblasts modeled by human mesenchymal stem cells (MSCs). The concentration ranges selected for each drug and investigational agent were based upon clinically achievable concentrations if the clinical Cmax of the agent was known.
# Compounds. The drugs and investigational agents: novobiocin (NSC847541), ART-558 (NSC835418), RP-6685 (NSC848927), peposertib (NSC802822), ceralasertib (NSC780249), elimusertib (NSC800525), camonsertib (NSC841442), AZD-1390 (NSC803789), olaparib (NSC753686), talazoparib (NSC767125), rucaparib (NSC756644), sotorasib (NSC818433), MRTX-1133 (NSC836407), SN-38 (NSC673596), topotecan (NSC609699), epotoside (NSC141540), doxorubicin (NSC123127), gemcitabine (NSC613327), 5-fluorouracil (NSC19893), paclitaxel (NSC125973), vemurafenib (NSC761431), MSA-2 (NSC828583), SN-011 (NSC837082), adavosertib (NSC754352), prexasertib (NSC758257), carboplatin (NSC241240) and oxaliplatin (NSC266046), were obtained from the National Cancer Institute (NCI) Developmental Therapeutics Program Chemical Repository (21). The FDA-approved anticancer drug set is available from the Developmental Therapeutics Program at https://dtp.cancer.gov/organization/dscb/obtaining/. […] The stock solutions were prepared in dimethyl sulfoxide (DMSO, Sigma-Aldrich, St. Louis, MO, cat. D2650), except for the platinum compounds which were prepared in saline (Quality Biological, Gaithersburg, MD, cat. 114-055-101), at 800-fold the tested concentration and stored at -70 degrees C prior to their use. All drugs and investigational agents were tested over a range starting from a high concentration at or near the clinical Cmax and decreasing in half-log increments. If the clinical Cmax for an agent had not been determined, the highest concentration tested was 10 microM, except for SN-38, which was tested at a high concentration of 1 microM.
# Cell Culture. All cells were maintained in an incubator at 37 degrees C and 5% CO2 with 95% humidity. The PDC lines were cultured according to standard operating procedures established by the NCI PDMR (https://pdmr.cancer.gov). Table 3 of the manuscript, lists the cell lines along with the number of the three cell types plated to form the mct-spheroids and media for tumor cell growth. After thawing, all PDC lines, except 997537-175-T-J1-PDC and 415267-285-R-J2-PDC, were cultured in Matrigel-coated flasks prepared with a working solution of 1X Ham's F-12 nutrient mix, without supplementation (Thermo Fisher Scientific, cat. 11765054), 100 U/mL penicillin-streptomycin (Thermo Fisher Scientific, cat. 15140122), and 2.5% Matrigel (Corning Inc., Corning, NY, cat. 354248) for the first three passages. The two PDC lines 997537-175-T-J1-PDC and 415267-285-R-J2-PDC were cultured on uncoated flasks. The 857933-349-R-J2-PDC line was cultured in 6C/Colon 1B media containing advanced DMEM/F-12 (Thermo Fisher Scientific, cat. 12634028), 10 mM HEPES (Thermo Fisher Scientific, cat. 15630080), 1X GlutaMAX supplement (Thermo Fisher Scientific, cat. 35050061), 0.1 mg/mL primocin (InvivoGen, San Diego, CA, cat. ant-pm-2), 10% defined fetal bovine serum, heat inactivated (HyClone Laboratories Inc., Logan, UT, cat. SH30070.03HI), 50% L-WRN conditioned media (ATCC, cat. CRL-3276), 1.25 mM N-Acetyl-L-cysteine (Sigma-Aldrich, cat. A9165), 10 mM nicotinamide (Sigma-Aldrich, cat. N0636), 1X B-27 supplement (Thermo Fisher Scientific, cat. 17504044), 1X N-2 supplement (Thermo Fisher Scientific, cat. […]
# 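Further: spheroids exposed to compounds for seven days before readout.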
smiles,measurement,setting,value
Cn1ncnc1[C@H]1c2n[nH]c(=O)c3cc(F)cc(c23)N[C@@H]1c1ccc(F)cc1,"viability, T/C",compound 0.000316 µM,96.9% and 93.8% and 114%
same,"viability, T/C",compound 0.001 µM,93.6% and 90.7% and 86.2%
same,"viability, T/C",compound 0.00316 µM,105% and 103% (2×)
same,"viability, T/C",compound 0.01 µM,99.3% and 97.8% and 73.1%
same,"viability, T/C",compound 0.0316 µM,85.6% and 89.2% and 103%
same,"viability, T/C",compound 0.1 µM,90.2% and 97.5% and 88.9%
same,IC50,curve of compound,> 100 nM
COc1cccc(OCCCN)c1-c1cc(Nc2cnc(C#N)cn2)n[nH]1 + COC1C(OC(N)=O)C(O)C(Oc2ccc3c(O)c(NC(=O)c4ccc(O)c(CC=C(C)C)c4)c(=O)oc3c2C)OC1(C)C,IC50,"curve of first compound, second compound 0.0316 µM",89.5 nM
same,IC50,"curve of first compound, second compound 0.1 µM",66.9 nM
same,IC50,"curve of first compound, second compound 0.316 µM",155 nM
same,IC50,"curve of first compound, second compound 1 µM",86.9 nM
same,IC50,"curve of first compound, second compound 3.16 µM",204 nM
same,IC50,"curve of first compound, second compound 10 µM",170 nM
same,"viability, T/C","second compound 0.0316 µM, first compound 0.00316 µM",102%
same,"viability, T/C","second compound 0.0316 µM, first compound 0.01 µM",75.5%
same,"viability, T/C","second compound 0.0316 µM, first compound 0.0316 µM",61.3%
same,"viability, T/C","second compound 0.0316 µM, first compound 0.1 µM",48.8%
same,"viability, T/C","second compound 0.0316 µM, first compound 0.316 µM",44.1%
same,"viability, T/C","second compound 0.0316 µM, first compound 1 µM",29.9%
same,"viability, T/C","second compound 0.1 µM, first compound 0.00316 µM",79.5%
same,"viability, T/C","second compound 0.1 µM, first compound 0.01 µM",113%
same,"viability, T/C","second compound 0.1 µM, first compound 0.0316 µM",58.8%
same,"viability, T/C","second compound 0.1 µM, first compound 0.1 µM",51.5%
same,"viability, T/C","second compound 0.1 µM, first compound 0.316 µM",48.9%
same,"viability, T/C","second compound 0.1 µM, first compound 1 µM",35.4%
same,"viability, T/C","second compound 0.316 µM, first compound 0.00316 µM",85.2%
same,"viability, T/C","second compound 0.316 µM, first compound 0.01 µM",86.1%
same,"viability, T/C","second compound 0.316 µM, first compound 0.0316 µM",62.6%
same,"viability, T/C","second compound 0.316 µM, first compound 0.1 µM",53.2%
same,"viability, T/C","second compound 0.316 µM, first compound 0.316 µM",48.5%
same,"viability, T/C","second compound 0.316 µM, first compound 1 µM",35.4%
same,"viability, T/C","second compound 1 µM, first compound 0.00316 µM",95%
same,"viability, T/C","second compound 1 µM, first compound 0.01 µM",84.2%
same,"viability, T/C","second compound 1 µM, first compound 0.0316 µM",52.8%
same,"viability, T/C","second compound 1 µM, first compound 0.1 µM",51.2%
same,"viability, T/C","second compound 1 µM, first compound 0.316 µM",46.5%
same,"viability, T/C","second compound 1 µM, first compound 1 µM",32.2%
same,"viability, T/C","second compound 3.16 µM, first compound 0.00316 µM",93.7%
same,"viability, T/C","second compound 3.16 µM, first compound 0.01 µM",89.1%
same,"viability, T/C","second compound 3.16 µM, first compound 0.0316 µM",79.5%
same,"viability, T/C","second compound 3.16 µM, first compound 0.1 µM",56.2%
same,"viability, T/C","second compound 3.16 µM, first compound 0.316 µM",47.5%
same,"viability, T/C","second compound 3.16 µM, first compound 1 µM",33.6%
same,"viability, T/C","second compound 10 µM, first compound 0.00316 µM",88%
same,"viability, T/C","second compound 10 µM, first compound 0.01 µM",77.7%
same,"viability, T/C","second compound 10 µM, first compound 0.0316 µM",70.5%
same,"viability, T/C","second compound 10 µM, first compound 0.1 µM",54.2%
same,"viability, T/C","second compound 10 µM, first compound 0.316 µM",44%
same,"viability, T/C","second compound 10 µM, first compound 1 µM",31%
O=C(c1cc(Cc2n[nH]c(=O)c3ccccc23)ccc1F)N1CCN(C(=O)C2CC2)CC1,"viability, T/C",compound 0.0316 µM,110% and 84.9% and 98.6%
same,"viability, T/C",compound 0.1 µM,108% and 96.5% and 87.8%
same,"viability, T/C",compound 0.316 µM,96.2% and 105% and 95.9%
same,"viability, T/C",compound 1 µM,101% and 98.2% and 108%
same,"viability, T/C",compound 3.16 µM,94.1% and 79.9% and 110%
same,"viability, T/C",compound 10 µM,72.3% and 76.5% and 84.3%
same,IC50,curve of compound,> 10000 nM
Nc1ccn(C2OC(CO)C(O)C2(F)F)c(=O)n1 (stereo not drawn),"viability, T/C",compound 0.0316 µM,73.9% and 60.7% and 67.2%
same,"viability, T/C",compound 0.1 µM,59.8% and 43.2% and 55.4%
same,"viability, T/C",compound 0.316 µM,25.9% and 10.6% and 33.7%
same,"viability, T/C",compound 1 µM,19.8% and 9.28% and 16.4%
same,"viability, T/C",compound 3.16 µM,13% and 7.52% and 11.1%
same,"viability, T/C",compound 10 µM,10.5% and 5.88% and 9.87%
same,IC50,curve of compound,139 nM and 63.8 nM and 134 nM
